Laboratory results published in US5162328A, “N-[3-[2-(1H-imidazol-1-yl)ethoxy]phenyl]-4-(2-thienyl)-2-pyrimidinamine and pharmacologically acceptable salts” (American Cyanamid Company, priority 1991, dated 1992).
Read-outs that look alike come from different tables or passages of the source.

Assay: Pharmacokinetics in dogs (plasma concentration by HPLC)
Type: in vivo, dog (beagle)
Conditions: for AUC(0-t) / Cmax / Tmax / half-life / AUC(0-inf) / concentration at 0.5 h / concentration at 1 h / concentration at 2 h / concentration at 4 h / concentration at 7 h / concentration at 12 h: 2 mg/kg/day PO; for AUC(0-inf): read-out: AUCO- (to infinite time)
Method: Since dogs are used in toxicology studies of antiasthma compounds, this species is chosen for pharmacokinetic evaluations. Use of the dog permits the pharmacokinetic comparison of 2 or more compounds in the same test animal, an evaluation which could not be conveniently performed in a smaller species. For each test compound, normal dogs are given a dose of 2.0 mg/kg/day for 5 consecutive days. There is a washout period of 1 month between the study of each of the test compounds in the same four dogs. Each test compound is administered as a solution of 5 mg/ml in either 0.05 or 0.1N HCl which is dispensed into a gelatin capsule immediately prior to dosage.
Heparinized blood samples are obtained from each animal on the first, third and fifth day of dosage at 0.5, 1.0, 2.0, 4.0, 7.0, 12.0 and 24.0 hours after the dose. The samples are centrifuged immediately to obtain plasma which is frozen until analyzed.
Analysis of plasma is performed using High Performance Liquid Chromatography (HPLC). The analytical procedure is essentially identical for each compound. The internal standard used for N-[3-[2-(1H-imidazol-1-yl)ethoxy]phenyl]-4-(2-thienyl)2-pyrimidinamine is 2-chloro-11-(4-methyl-1-piperazinyl)dibenz[b,f][1,4]oxazepine succinate, while for 2-methyl-N^4 -[4-(4-pyridinyl)-2-pyrimidinyl]-1,4-benzenediamine dihydrochloride and N-[4-[2-(diethylamino)ethoxy]phenyl]-4-(4-pyridinyl)-2-pyrimidnamine dihydrochloride the internal standard is 7-ethoxy-coumarin. In a typical procedure, a 0.4 ml volume of acetonitrile containing internal standard is added a 0.2 ml volume of serum. The sample is mixed by vortexing and centrifuged. The clear protein free supernatent fluid is decanted into a clean tube and evaporated to dryness. The dry residue is dissolved in 0.2 ml of HPLC mobile phase and 50 ul of this solution injected. Peaks corresponding to the test compound being measured and to the internal standard compound are quantitated by their absorption of ultraviolet light at 280 nm. Each set of analytical samples is accompanied by the analysis of a group of standard dog plasma samples prepared to contain amounts of the compound being measured which encompasses the concentration range of the samples.
Four normal beagle dogs weighing between 9.2 and 10.2 Kg are used in the study.

[1] = dog, plasma, po, 2 mg/kg/day, Dog 3, day 3
[2] = dog, plasma, po, 2 mg/kg/day, Dog 3, day 5
[3] = dog, plasma, po, 2 mg/kg/day, Dog 4, day 1
[4] = dog, plasma, po, 2 mg/kg/day, Dog 4, day 3
[5] = dog, plasma, po, 2 mg/kg/day, Dog 4, day 5
[6] = dog, plasma, po, 2 mg/kg/day, Mean, day 1
[7] = dog, plasma, po, 2 mg/kg/day, Mean, day 3
[8] = dog, plasma, po, 2 mg/kg/day, Mean, day 5

- AUC(0-t) [1]: 799 ng·h/mL
- Cmax [1]: 350 ng/mL
- Tmax [1]: 1 h
- half-life [1]: 1.62 h
- AUC(0-inf) [1]: 955 ng·h/mL
- concentration at 0.5 h (dog, plasma, po, 2 mg/kg/day, Dog 3, day 5, 0.5 h): < 30 ng/mL
- concentration at 1 h (dog, plasma, po, 2 mg/kg/day, Dog 3, day 5, 1 h): 272 ng/mL
- concentration at 2 h (dog, plasma, po, 2 mg/kg/day, Dog 3, day 5, 2 h): 233 ng/mL
- concentration at 4 h (dog, plasma, po, 2 mg/kg/day, Dog 3, day 5, 4 h): 114 ng/mL
- concentration at 7 h (dog, plasma, po, 2 mg/kg/day, Dog 3, day 5, 7 h): < 30 ng/mL
- concentration at 12 h (dog, plasma, po, 2 mg/kg/day, Dog 3, day 5, 12 h): < 30 ng/mL
- AUC(0-t) [2]: 682 ng·h/mL
- Cmax [2]: 272 ng/mL
- Tmax [2]: 1 h
- half-life [2]: 1.94 h
- AUC(0-inf) [2]: 978 ng·h/mL
- concentration at 0.5 h (dog, plasma, po, 2 mg/kg/day, Dog 4, day 1, 0.5 h): 173 ng/mL
- concentration at 1 h (dog, plasma, po, 2 mg/kg/day, Dog 4, day 1, 1 h): 364 ng/mL
- concentration at 2 h (dog, plasma, po, 2 mg/kg/day, Dog 4, day 1, 2 h): 325 ng/mL
- concentration at 4 h (dog, plasma, po, 2 mg/kg/day, Dog 4, day 1, 4 h): 172 ng/mL
- concentration at 7 h (dog, plasma, po, 2 mg/kg/day, Dog 4, day 1, 7 h): 40 ng/mL
- concentration at 12 h (dog, plasma, po, 2 mg/kg/day, Dog 4, day 1, 12 h): < 30 ng/mL
- AUC(0-t) [3]: 1340 ng·h/mL
- Cmax [3]: 364 ng/mL
- Tmax [3]: 1 h
- half-life [3]: 1.64 h
- AUC(0-inf) [3]: 1440 ng·h/mL
- concentration at 0.5 h (dog, plasma, po, 2 mg/kg/day, Dog 4, day 3, 0.5 h): 65 ng/mL
- concentration at 1 h (dog, plasma, po, 2 mg/kg/day, Dog 4, day 3, 1 h): 220 ng/mL
- concentration at 2 h (dog, plasma, po, 2 mg/kg/day, Dog 4, day 3, 2 h): 144 ng/mL
- concentration at 4 h (dog, plasma, po, 2 mg/kg/day, Dog 4, day 3, 4 h): 38 ng/mL
- concentration at 7 h (dog, plasma, po, 2 mg/kg/day, Dog 4, day 3, 7 h): < 30 ng/mL
- concentration at 12 h (dog, plasma, po, 2 mg/kg/day, Dog 4, day 3, 12 h): < 30 ng/mL
- AUC(0-t) [4]: 452 ng·h/mL
- Cmax [4]: 220 ng/mL
- Tmax [4]: 1 h
- half-life [4]: 1.61 h
- AUC(0-inf) [4]: 551 ng·h/mL
- concentration at 0.5 h (dog, plasma, po, 2 mg/kg/day, Dog 4, day 5, 0.5 h): < 30 ng/mL
- concentration at 1 h (dog, plasma, po, 2 mg/kg/day, Dog 4, day 5, 1 h): 191 ng/mL
- concentration at 2 h (dog, plasma, po, 2 mg/kg/day, Dog 4, day 5, 2 h): 197 ng/mL
- concentration at 4 h (dog, plasma, po, 2 mg/kg/day, Dog 4, day 5, 4 h): 71 ng/mL
- concentration at 7 h (dog, plasma, po, 2 mg/kg/day, Dog 4, day 5, 7 h): < 30 ng/mL
- concentration at 12 h (dog, plasma, po, 2 mg/kg/day, Dog 4, day 5, 12 h): < 30 ng/mL
- AUC(0-t) [5]: 510 ng·h/mL
- Cmax [5]: 197 ng/mL
- Tmax [5]: 2 h
- AUC(0-inf) [5]: 694 ng·h/mL
- concentration at 0.5 h (dog, plasma, po, 2 mg/kg/day, Mean of 4 dogs, day 1, 0.5 h): 235 ng/mL
- concentration at 1 h (dog, plasma, po, 2 mg/kg/day, Mean of 4 dogs, day 1, 1 h): 405 ng/mL
- concentration at 2 h (dog, plasma, po, 2 mg/kg/day, Mean of 4 dogs, day 1, 2 h): 318 ng/mL
- concentration at 4 h (dog, plasma, po, 2 mg/kg/day, Mean of 4 dogs, day 1, 4 h): 188 ng/mL
- concentration at 7 h (dog, plasma, po, 2 mg/kg/day, Mean of 4 dogs, day 1, 7 h): 52 ng/mL
- concentration at 12 h (dog, plasma, po, 2 mg/kg/day, Mean of 4 dogs, day 1, 12 h): < 30 ng/mL
- concentration at 0.5 h (dog, plasma, po, 2 mg/kg/day, Mean of 4 dogs, day 3, 0.5 h): 89 ng/mL
- concentration at 1 h (dog, plasma, po, 2 mg/kg/day, Mean of 4 dogs, day 3, 1 h): 225 ng/mL
- concentration at 2 h (dog, plasma, po, 2 mg/kg/day, Mean of 4 dogs, day 3, 2 h): 148 ng/mL
- concentration at 4 h (dog, plasma, po, 2 mg/kg/day, Mean of 4 dogs, day 3, 4 h): 33 ng/mL
- concentration at 7 h (dog, plasma, po, 2 mg/kg/day, Mean of 4 dogs, day 3, 7 h): < 30 ng/mL
- concentration at 12 h (dog, plasma, po, 2 mg/kg/day, Mean of 4 dogs, day 3, 12 h): < 30 ng/mL
- concentration at 0.5 h (dog, plasma, po, 2 mg/kg/day, Mean of 4 dogs, day 5, 0.5 h): 106 ng/mL
- concentration at 1 h (dog, plasma, po, 2 mg/kg/day, Mean of 4 dogs, day 5, 1 h): 276 ng/mL
- concentration at 2 h (dog, plasma, po, 2 mg/kg/day, Mean of 4 dogs, day 5, 2 h): 212 ng/mL
- concentration at 4 h (dog, plasma, po, 2 mg/kg/day, Mean of 4 dogs, day 5, 4 h): 82 ng/mL
- concentration at 7 h (dog, plasma, po, 2 mg/kg/day, Mean of 4 dogs, day 5, 7 h): < 30 ng/mL
- concentration at 12 h (dog, plasma, po, 2 mg/kg/day, Mean of 4 dogs, day 5, 12 h): < 30 ng/mL
- AUC(0-t) [6]: 1380 ng·h/mL
- Cmax [6]: 405 ng/mL
- Tmax [6]: 1 h
- half-life [6]: 2.27 h
- AUC(0-inf) [6]: 1620 ng·h/mL
- AUC(0-t) [7]: 444 ng·h/mL
- Cmax [7]: 225 ng/mL
- Tmax [7]: 1 h
- half-life [7]: 1.47 h
- AUC(0-inf) [7]: 595 ng·h/mL
- AUC(0-t) [8]: 659 ng·h/mL
- Cmax [8]: 277 ng/mL
- Tmax [8]: 1.25 h
- half-life [8]: 1.5 h
- AUC(0-inf) [8]: 871 ng·h/mL
- k el (dog, plasma, po, 2 mg/kg/day, derived from mean of half-life values, read-out: elimination constant (converted)): 0.000107 s⁻¹
Structure (SMILES): c1cc(Nc2nccc(-c3cccs3)n2)cc(OCCn2ccnc2)c1 [N-[3-[2-(1H-imidazol-1-yl)ethoxy]phenyl]-4-(2-thienyl)-2-pyrimidinamine]
- plasma half-life (in words) (dogs, compared with the two compounds of U.S. Pat. No. 4,788,195): increased plasma half-life and reproducibility
